In patent US9969749B2, “Inhibitors of IRAK4 activity” (MERCK SHARP & DOHME CORP., priority 2014, dated 2018):

Target: IRAK4 (Homo sapiens (Human), UniProt Q9NWZ3)
Experiment: IRAK4 Kinase Assay (IMAP fluorescence polarization)
Assay type: biochemical
Settings: 0.5 nM GST tagged IRAK4, 100 μM ATP, 100 nM fluorescent peptide substrate RP7030, 30 minutes at 25° C.
Outline: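 GST-tagged IRAK4 (0.5 nM) phosphorylates 100 nM fluorescent peptide with 100 μM ATP in 10 mM Tris pH 7.2, 1 mM MgCl2, 1 mM DTT, 0.01% Tween 20 for 30 min at 25 °C. Phosphorylation read as IMAP nanoparticle-binding fluorescence polarization after stop reagent.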

Sequence of IRAK4 (Q9NWZ3 whole entry): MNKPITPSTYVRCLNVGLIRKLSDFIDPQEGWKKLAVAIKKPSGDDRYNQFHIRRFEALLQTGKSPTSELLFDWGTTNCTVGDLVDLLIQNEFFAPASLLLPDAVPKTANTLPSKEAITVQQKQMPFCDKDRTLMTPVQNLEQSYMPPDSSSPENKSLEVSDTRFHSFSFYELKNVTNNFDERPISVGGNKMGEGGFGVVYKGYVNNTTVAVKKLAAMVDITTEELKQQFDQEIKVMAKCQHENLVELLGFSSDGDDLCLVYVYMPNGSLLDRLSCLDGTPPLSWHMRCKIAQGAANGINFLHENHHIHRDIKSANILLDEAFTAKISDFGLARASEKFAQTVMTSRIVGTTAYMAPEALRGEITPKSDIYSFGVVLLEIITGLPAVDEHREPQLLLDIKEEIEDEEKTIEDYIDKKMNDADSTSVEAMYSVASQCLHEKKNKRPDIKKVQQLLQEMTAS

IC50 [nM] | SMILES
2 | Nc1cc(-c2ccc3ncnc(N[C@H]4CC[C@H](N5CCCC(CN6CCOCC6)C5)CC4)c3c2)cnc1F (stereo partly drawn) [Example 5-21, 6-(5-amino-6-fluoropyridin-3-yl)-N-{trans-4-[3-(morpholin-4-ylmethyl)piperidin-1-yl]cyclohexyl}quinazolin-4-amine]
433 | Cc1c(-c2ccncc2)ccc2ncnc(N[C@H]3CC[C@H](N4CCOCC4)CC3)c12 [Example 1-78, 5-methyl-N-(trans-4-morpholin-4-ylcyclohexyl)-6-pyridin-4-ylquinazolin-4-amine]
358 | CN(C)[C@H]1CC[C@H](Nc2ncnc3ccc(-c4cnn(Cc5ccncc5)c4)cc23)CC1 [Example 1-19, trans-N,N-dimethyl-N′-{6-[1-(pyridin-4-ylmethyl)-1H-pyrazol-4-yl]quinazolin-4-yl}cyclohexane-1,4-diamine]
1 | C[C@@H]1CN([C@H]2CC[C@H](Nc3ncnc4ccc(-c5cnc(F)c(N)c5)cc34)CC2)CCO1 [Example 5-24, 6-(5-amino-6-fluoropyridin-3-yl)-N-{trans-4-[(2R)-2-methylmorpholin-4-yl]cyclohexyl}quinazolin-4-amine]
3 | CN(C)[C@H]1CC[C@H](Nc2ncnc3ccc(-c4cncnc4)cc23)CC1 [Example 1-25, trans-N,N-dimethyl-N′-[6-(pyrimidin-5-yl)quinazolin-4-yl]cyclohexane-1,4-diamine]
21 | CN(C)[C@H]1CC[C@H](Nc2ncnc3ccc(-c4cnc5[nH]ncc5c4)cc23)CC1 [Example 1-58, trans-N,N-dimethyl-N′-[6-(1H-pyrazolo[3,4-b]pyridin-5-yl)quinazolin-4-yl]cyclohexane-1,4-diamine]
19 | CN(C)C1CCC(Nc2ncnc3ccc(-c4ccccc4)cc23)CC1 (single isomer, unassigned) [Example 1-5, cis or trans-N,N-dimethyl-N′-(6-phenylquinazolin-4-yl)cyclohexane-1,4-diamine]
27 | Cc1cc(-c2ccc3ncnc(N[C@H]4CC[C@H](N(C)C)CC4)c3c2)cnn1 [Example 1-1, Trans-N,N-dimethyl-N′-[6-(6-methylpyridazin-4-yl)quinazolin-4-yl]cyclohexane-1,4-diamine]
9 | CN(C)[C@H]1CC[C@H](Nc2ncnc3ccc(-c4cnoc4)cc23)CC1 [Example 1-32, trans-N′-[6-(isoxazol-4-yl)quinazolin-4yl]-N,N-dimethylcyclohexane-1,4-diamine]
223 | Cc1c(-c2cncnc2)ccc2ncnc(N[C@H]3CC[C@H](N4CCOCC4)CC3)c12 [Example 1-76, 5-methyl-N-(trans-4-morpholin-4-ylcyclohexyl)-6-pyrimidin-5-ylquinazolin-4-amine]

Continued, compound first:

SMILES | IC50 [nM]
Fc1cc(-c2ccc3ncnc(N[C@H]4CC[C@H](N5CCOCC5)CC4)c3c2)cnc1F [Example 2-34, 6-(5,6-difluoropyridin-3-yl)-N-[trans-4-(morpholin-4-yl)cyclohexyl]quinazolin-4-amine] | 13
CN(C)[C@H]1CC[C@H](Nc2ncnc3ccc(-c4cnc5ccoc5c4)cc23)CC1 [Example 1-61, trans-N′-[6-(furo[3,2-b]pyridin-6-yl)quinazolin-4-yl]-N,N-dimethylcyclohexane-1,4-diamine] | 109
CN(C)[C@H]1CC[C@H](Nc2ncnc3ccc(-c4cccnc4C#N)cc23)CC1 [Example 1-39, 3-(4-{[trans-4-(dimethylamino)cyclohexyl]amino}quinazolin-6-yl)pyridine-2-carbonitrile] | 43
CN(C)[C@H]1CC[C@H](Nc2ncnc3ccc(-c4cncc(C(=O)NC(C)(C)C)c4)cc23)CC1 [Example 1-56, N-tert-butyl-5-(4-{[trans-4-(dimethylamino)cyclohexyl]amino}quinazolin-6-yl)pyridine-3-carboxamide] | 129
N#Cc1sccc1-c1ccc2ncnc(N[C@H]3CC[C@H](N4CCOCC4)CC3)c2c1 [Example 2-17, 3-(4-{[trans-4-(morpholin-4-yl)cyclohexyl]amino}quinazolin-6-yl)thiophene-2-carbonitrile] | 41
CN(C)C1CCC(Nc2ncnc3ccc(-c4cccnc4)cc23)CC1 (single isomer, unassigned) [Example 1-4, cis or trans-N,N-dimethyl-N′-[6-(pyridin-3-yl)quinazolin-4-yl]cyclohexane-1,4-diamine] | 1610
CN(C)C1CCC(Nc2ncnc3ccc(-c4ccccc4)cc23)CC1 (single isomer, unassigned) [Example 1-2, cis or trans-N,N-dimethyl-N′-(6-phenylquinazolin-4-yl)cyclohexane-1,4-diamine] | 3160
CN(C)[C@H]1CC[C@H](Nc2ncnc3ccc(-c4cnccc4C#N)cc23)CC1 [Example 1-22, 3-(4-{[trans-4-(dimethylamino)cyclohexyl]amino}quinazolin-6-yl)pyridine-4-carbonitrile] | 54
Cn1ccnc1-c1ccc2ncnc(N[C@H]3CC[C@H](N4CCOCC4)CC3)c2c1 [Example 2-26, 6-(1-methyl-1H-imidazol-2-yl)-N-[trans-4-(morpholin-4-yl)cyclohexyl]quinazolin-4-amine] | 562
CN(C)[C@H]1CC[C@H](Nc2ncnc3ccc(-c4cnc(O)nc4)cc23)CC1 [Example 1-33, 5-(4-{[trans-4-(dimethylamino)cyclohexyl]amino}quinazolin-6-yl)pyrimidin-2-ol] | 9
FC(F)c1cncc(-c2ccc3ncnc(N[C@H]4CC[C@H](N5CCOCC5)CC4)c3c2)c1 [Example 2-35, 6-[5-(difluoromethyl)pyridin-3-yl]-N-[trans-4-(morpholin-4-yl)cyclohexyl]quinazolin-4-amine] | 37
Nc1cncc(-c2ccc3ncnc(N[C@H]4CC[C@H](N5CCOCC5)CC4)c3c2)c1 [Example 1-73, 6-(5-aminopyridin-3-yl)-N-(trans-4-morpholin-4-ylcyclohexyl)quinazolin-4-amine] | 1
CCOC(=O)c1cn(C)nc1-c1ccc2ncnc(N[C@H]3CC[C@H](N4CCOCC4)CC3)c2c1 [Example 2-1, Ethyl 1-methyl-3-(4-(((trans)-4-morpholinocyclohexyl)amino)quinazolin-6-yl)-1H-pyrazole-4-carboxylate] | 6030
Cc1cnccc1-c1ccc2ncnc(N[C@H]3CC[C@H](N(C)C)CC3)c2c1 [Example 1-21, trans-N,N-dimethyl-N′-[6-(3-methylpyridin-4-yl)quinazolin-4-yl]cyclohexane-1,4-diamine] | 155
CN(C)C(=O)c1cccc(-c2ccc3ncnc(N[C@H]4CC[C@H](N5CCOCC5)CC4)c3c2)n1 [Example 4-1, N,N-Dimethyl-6-(4-(((trans)-4-morpholinocyclohexyl)amino)quinazolin-6-yl)picolinamide] | 32
Cn1cc(-c2ccc3ncnc(N[C@H]4CC[C@H](N5CCOCC5)CC4)c3c2)cn1 [Example 1-75, 6-(1-methyl-1H-pyrazol-4-yl)-N-(trans-4-morpholin-4-ylcyclohexyl)quinazolin-4-amine] | 39
